Test results as given in the supplement of paper PMC8671470.

Key:
Settings in all cases: 72 h
MV4-11 = tested on: MV4-11
Outline: (§1)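 The IC50 was derived from log-logistic dose–response fitting. Each of fifteen myeloid leukaemia cell lines, seeded in RPMI 1640 within its linear growth range, was exposed in 384-well plates to five tenfold doses (1 to 10,000 nM) in duplicate for 72 h at 37 °C and 5% CO2. Luminescent ATP viability readings were normalised to vehicle and to a positive control at 10 µM before four-parameter curve fitting.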

LAMA-84 [1] = tested on: LAMA-84
Outline: as §1

KU-812 [2] = tested on: KU-812
Outline: as §1

KCL-22 [3] = tested on: KCL-22
Outline: as §1

HEL [4] = tested on: HEL
Outline: as §1

SHI-1 [5] = tested on: SHI-1
Outline: as §1

Mono-Mac-6 [6] = tested on: Mono-Mac-6
Outline: as §1

MOLM-13 [7] = tested on: MOLM-13
Outline: as §1

ML-2 [8] = tested on: ML-2
Outline: as §1

K-562 [9] = tested on: K-562
Outline: as §1

THP-1 [10] = tested on: THP-1
Outline: as §1

KG-1 [11] = tested on: KG-1
Outline: as §1

NOMO-1 [12] = tested on: NOMO-1
Outline: as §1

HL-60 [13] = tested on: HL-60
Outline: as §1

BV-173 [14] = tested on: BV-173
Outline: as §1

HL-60 [15] = assay: area under dose-response curve (viability, 1 nM-10 uM) (fraction (0-1)); higher = more sensitive
Outline: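 For each screen, HL-60 cells in RPMI 1640 with 10% FBS carried either DMSO or 100 nM of one of three metabolic inhibitors while the full library was applied at five tenfold concentrations, 1–10,000 nM, in duplicate. Plates were 384-well and were kept 72 h at 37 °C, 5% CO2. Viability, measured by CellTiter-Glo, was normalised to wells with DMSO and with 10 μM proteasome inhibitor. Where area under the curve appears, it was fitted by four-parameter log-logistic models in drc and PharmacoGx.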

LAMA-84 [16] = assay: cell viability (% survival relative to DMSO control, bortezomib = 0%); higher = less cytotoxic
Outline: (§2)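 Reported values are percent survival from duplicate wells, averaged. Fifteen myeloid leukaemia cell lines were treated in 384-well plates with compounds at 1, 10, 100, 1000 or 10000 nM for 72 h at 37 °C in 5% CO2. Signals from CellTiter-Glo luminescence were scaled with vehicle as 100% and a 10 µM positive control as 0%.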

KU-812 [17] = assay: as above
Outline: as §2

KCL-22 [18] = assay: as above
Outline: as §2

HEL [19] = assay: as above
Outline: as §2

SHI-1 [20] = assay: as above
Outline: as §2

Mono-Mac-6 [21] = assay: as above
Outline: as §2

MOLM-13 [22] = assay: as above
Outline: as §2

ML-2 [23] = assay: as above
Outline: as §2

K-562 [24] = assay: as above
Outline: as §2

THP-1 [25] = assay: as above
Outline: as §2

KG-1 [26] = assay: as above
Outline: as §2

NOMO-1 [27] = assay: as above
Outline: as §2

HL-60 [28] = assay: as above
Outline: as §2

BV-173 [29] = assay: as above
Outline: as §2

O=C1c2cc([N+](=O)[O-])ccc2-n2c1nc1ccccc1c2=O [GNF-Pf-3777]
Settings | IC50 (cell viability) [µM]
BV-173 [14] | 1.64
HEL [4] | 0.934
HL-60 [13] | 1.28
K-562 [9] | 1.11
KCL-22 [3] | 0.538
KG-1 [11] | 1.29
KU-812 [2] | 1.31
LAMA-84 [1] | 1.83
ML-2 [8] | 6.05
MOLM-13 [7] | 1.58
MV4-11 | 1.5
Mono-Mac-6 [6] | 1.78
NOMO-1 [12] | 5.99
SHI-1 [5] | 1.93
THP-1 [10] | 1.22

Settings | area under dose-response curve, co-treatment: AZD3965 100 nM | area under dose-response curve, co-treatment: DMSO vehicle | area under dose-response curve, co-treatment: GSK2194069 100 nM | area under dose-response curve, co-treatment: pictilisib 100 nM | cell viability, 1 nM [%] | cell viability, 10 nM [%] | cell viability, 100 nM [%] | cell viability, 1000 nM [%] | cell viability, 10000 nM [%]
BV-173 [29] | – | – | – | – | 95.9 | 104 | 89.5 | 66.4 | 4.9
HEL [19] | – | – | – | – | 98.5 | 105 | 105 | 53.1 | 13.6
HL-60 [15] | 0.15 | 0.122 | 0.154 | 0.165 | – | – | – | – | –
HL-60 [28] | – | – | – | – | 89.7 | 92.2 | 105 | 59.1 | 0.853
K-562 [24] | – | – | – | – | 102 | 100 | 103 | 56.2 | 4.1
KCL-22 [18] | – | – | – | – | 87.9 | 115 | 102 | 37 | 21.2
KG-1 [26] | – | – | – | – | 99.6 | 95.6 | 110 | 67.1 | 27.6
KU-812 [17] | – | – | – | – | 91.6 | 91.1 | 87.9 | 53.4 | 6.51
LAMA-84 [16] | – | – | – | – | 97.5 | 102 | 96.1 | 71.3 | 32.8
ML-2 [23] | – | – | – | – | 96.7 | 99 | 97.8 | 94.1 | 28.8
MOLM-13 [22] | – | – | – | – | 99.5 | 122 | 108 | 75.8 | 18
Mono-Mac-6 [21] | – | – | – | – | 86.3 | 104 | 90.9 | 66.3 | 6.53
NOMO-1 [27] | – | – | – | – | 92.3 | 99.9 | 90.3 | 86.7 | 31.8
SHI-1 [20] | – | – | – | – | 99.9 | 104 | 92 | 66.6 | 16.5
THP-1 [25] | – | – | – | – | 103 | 92.2 | 85.6 | 62.3 | 30.9

Cl.NC(CCC(=O)Nc1ccc([N+](=O)[O-])cc1)C(=O)O (stereo unspecified) [GPNA]
Settings | IC50 (cell viability) [µM]
BV-173 [14] | > 10
HEL [4] | > 10
HL-60 [13] | > 10
K-562 [9] | > 10
KCL-22 [3] | > 10
KG-1 [11] | > 10
KU-812 [2] | > 10
LAMA-84 [1] | > 10
ML-2 [8] | > 10
MOLM-13 [7] | > 10
MV4-11 | > 10
Mono-Mac-6 [6] | > 10
NOMO-1 [12] | > 10
SHI-1 [5] | > 10
THP-1 [10] | > 10

Settings | area under dose-response curve, co-treatment: AZD3965 100 nM | area under dose-response curve, co-treatment: DMSO vehicle | area under dose-response curve, co-treatment: GSK2194069 100 nM | area under dose-response curve, co-treatment: pictilisib 100 nM | cell viability, 1 nM [%] | cell viability, 10 nM [%] | cell viability, 100 nM [%] | cell viability, 1000 nM [%] | cell viability, 10000 nM [%]
BV-173 [29] | – | – | – | – | 114 | 106 | 94.1 | 101 | 119
HEL [19] | – | – | – | – | 95.2 | 104 | 106 | 91.5 | 104
HL-60 [15] | < 0.0301 | < 0.0301 | < 0.0301 | < 0.0301 | – | – | – | – | –
HL-60 [28] | – | – | – | – | 103 | 60.6 | 104 | 99.3 | 125
K-562 [24] | – | – | – | – | 108 | 96.3 | 100 | 109 | 120
KCL-22 [18] | – | – | – | – | 106 | 91 | 110 | 96.5 | 102
KG-1 [26] | – | – | – | – | 112 | 115 | 95.9 | 102 | 108
KU-812 [17] | – | – | – | – | 108 | 95.5 | 103 | 96.4 | 110
LAMA-84 [16] | – | – | – | – | 109 | 109 | 98 | 111 | 100
ML-2 [23] | – | – | – | – | 107 | 90.5 | 98.9 | 107 | 109
MOLM-13 [22] | – | – | – | – | 101 | 99.6 | 109 | 98.2 | 134
Mono-Mac-6 [21] | – | – | – | – | 92.2 | 96.4 | 105 | 98.3 | 104
NOMO-1 [27] | – | – | – | – | 107 | 102 | 101 | 105 | 105
SHI-1 [20] | – | – | – | – | 107 | 91.6 | 94.9 | 99.5 | 98.3
THP-1 [25] | – | – | – | – | 106 | 101 | 101 | 102 | 104

CC(C)c1onc(-c2c(Cl)cccc2Cl)c1COc1ccc(/C=C/c2cccc(C(=O)O)c2)c(Cl)c1 [GW4064]
Settings | IC50 (cell viability) [µM]
BV-173 [14] | 6.11
HEL [4] | > 10
HL-60 [13] | > 10
K-562 [9] | 6.26
KCL-22 [3] | 3.6
KG-1 [11] | 8.29
KU-812 [2] | > 10
LAMA-84 [1] | 4.27
ML-2 [8] | > 10
MOLM-13 [7] | 2.34
MV4-11 | 1.6
Mono-Mac-6 [6] | > 10
NOMO-1 [12] | > 10
SHI-1 [5] | > 10
THP-1 [10] | > 10

Settings | area under dose-response curve, co-treatment: AZD3965 100 nM | area under dose-response curve, co-treatment: DMSO vehicle | area under dose-response curve, co-treatment: pictilisib 100 nM | cell viability, 1 nM [%] | cell viability, 10 nM [%] | cell viability, 100 nM [%] | cell viability, 1000 nM [%] | cell viability, 10000 nM [%]
BV-173 [29] | – | – | – | 111 | 96.2 | 92.3 | 87.7 | 37.4
HEL [19] | – | – | – | 85.7 | 87.2 | 86.8 | 87 | 66.7
HL-60 [15] | < 0.0301 | < 0.0301 | < 0.0301 | – | – | – | – | –
HL-60 [28] | – | – | – | 115 | 93.8 | 89.7 | 109 | 51.5
K-562 [24] | – | – | – | 109 | 107 | 105 | 90.9 | 49.4
KCL-22 [18] | – | – | – | 91.5 | 93.8 | 96 | 85.6 | 31.7
KG-1 [26] | – | – | – | 85.6 | 81.5 | 95.8 | 76.8 | 51.2
KU-812 [17] | – | – | – | 96.8 | 99.7 | 90.7 | 85.1 | 76
LAMA-84 [16] | – | – | – | 105 | 103 | 94.2 | 85.3 | 43.4
ML-2 [23] | – | – | – | 95.6 | 86.2 | 84 | 86.2 | 68.5
MOLM-13 [22] | – | – | – | 147 | 108 | 93.8 | 86.7 | -0.111
Mono-Mac-6 [21] | – | – | – | 104 | 87.6 | 95.9 | 86.7 | 67.7
NOMO-1 [27] | – | – | – | 102 | 99.3 | 94 | 95.8 | 89.5
SHI-1 [20] | – | – | – | 110 | 99.3 | 101 | 95.9 | 53
THP-1 [25] | – | – | – | 88.8 | 92.3 | 91.5 | 90.5 | 54.6
